The nature of assay [1]: DPPH free radical scavenging assay. The conditions noted are these: means ± S.D. (n = 3); NA: not active at maximum concentration tested; read-out: DPPH Test IC50. The protocol:
The DPPH assay was performed according to a previously reported protocol. Absorbance was measured at 517 nm using a UV-Vis spectrophotometer (model V-550, Jasco, Milan, Italy). Ascorbic acid was used as positive control.

Another assay can be described thus: ABTS assay. Particulars: means ± S.D. (n = 3); NA: not active at maximum concentration tested; read-out: ABTS Test IC50. The protocol:
The ABTS assay was performed according to a previously reported protocol. Absorbance was measured at 734 nm using a UV-Vis spectrophotometer (model V-550, Jasco, Milan, Italy) Ascorbic acid was used as positive control.

Assay [2] in a line: Ferric reducing ability power (FRAP) test. The conditions noted are these: means ± S.D. (n = 3). The protocol: The FRAP test was performed following the protocol previously described. Absorbance was measured using a UV-Vis spectrophotometer (model V-550, Jasco, Milan, Italy) at 470 nm. FRAP value was expressed as mM Fe(II)/g. Butylated hydroxytoluene (BHT) was used as a positive control.

In the next assay the test system is healthy human subjects. Set-up: method as in PMID 16612838. The conditions noted are these: oral administration; cited from earlier work.
The nature of assay [3]: β-Carotene bleaching test. The protocol:
The β-carotene bleaching test was performed as previously described. The absorbance of the samples, standard, and control was measured using a UV-Vis spectrophotometer (model V-550, Jasco, Milan, Italy) at 470 nm against a blank at t = 0 and successively at 30 and 60 min. Propyl gallate was used as positive control.

The next assay has as its system type 1 diabetic rats. Set-up: method as in PMID 28230360. Particulars: orally 6 mg/Kg for 28 days; cited from earlier work.
The subject of another assay is β-cells. Set-up: method as in PMID 31022842. The conditions noted are these: cited from earlier work.
The next assay concerns the target α-glucosidase. The assay is described as follows: α-Glucosidase inhibitory assay. The class given is biochemical. Particulars: for Ki: calculated following the Cheng–Prusoff equation; for IC50 / α-Glucosidase IC50: means ± S.D. (n = 3). As to the method: The α-glucosidase inhibitory assay was achieved following the procedure previously described. Absorbance was measured at 500 nm using a UV-Vis spectrophotometer (model V-550, Jasco, Milan, Italy). […] Ki value was calculated as previously described.

The target in a further assay is T1, α-amylase (Sus scrofa, UniProt P00690).
T1 sequence (P00690 16-511): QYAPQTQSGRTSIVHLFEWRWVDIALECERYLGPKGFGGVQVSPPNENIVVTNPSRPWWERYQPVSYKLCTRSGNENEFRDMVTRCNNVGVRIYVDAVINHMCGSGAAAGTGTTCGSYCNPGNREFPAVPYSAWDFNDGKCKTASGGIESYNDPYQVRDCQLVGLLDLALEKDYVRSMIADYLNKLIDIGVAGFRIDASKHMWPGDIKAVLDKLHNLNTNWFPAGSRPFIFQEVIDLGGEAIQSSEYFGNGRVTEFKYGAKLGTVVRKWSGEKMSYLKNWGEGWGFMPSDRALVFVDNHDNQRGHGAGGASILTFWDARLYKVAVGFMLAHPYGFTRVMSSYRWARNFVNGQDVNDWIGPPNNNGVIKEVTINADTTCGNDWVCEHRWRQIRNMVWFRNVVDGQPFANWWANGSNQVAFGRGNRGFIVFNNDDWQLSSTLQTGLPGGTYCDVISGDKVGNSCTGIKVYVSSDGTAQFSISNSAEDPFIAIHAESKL
Description: α-Amylase inhibitory assay. The class given is biochemical. Particulars: means ± S.D. (n = 3). As to the method:
The α-amylase inhibition assay was accomplished as previously described. Absorbance was measured at 540 nm using a UV-Vis spectrophotometer (model V-550, Jasco, Milan, Italy). […] Ki values were calculated following the Cheng–Prusoff equation [18].

Setting [4] is: read-out: β-Carotene Bleaching Test IC50 30 min, 30 min of incubation.
The mark [5] stands for this setting: read-out: β-Carotene Bleaching Test IC50 60 min, 60 min of incubation.

The values that follow come from PMC6616483, “Non-Pungent n-3 Polyunsaturated Fatty Acid (PUFA)-Derived Capsaicin Analogues as Potential Functional Ingredients with Antioxidant and Carbohydrate-Hydrolysing Enzyme Inhibitory Activities” (Antioxidants, 2019).

For orientation: IC50 means the concentration needed to halve the response being measured. For orientation: Ki means a measure of affinity in units of concentration, obtained from inhibition or displacement.

Each structure is given as a SMILES string. “And” between values parts separate entries of the source, which are not always exact repeats. Equal entries are not always repeated. Where two headings read alike, the source gives them in different places.

Consider `O=C1O[C@H]([C@@H](O)CO)C(O)=C1O` [Ascorbic acid], for which the IC50 in assay [1] turned out to be 23 ± 2 µM; in the assay “ABTS assay”, 9.6 ± 0.9 µM.
With `Cc1cc(C(C)(C)C)c(O)c(C(C)(C)C)c1` [BHT, Butylated hydroxytoluene], the “FRAP Test” value in assay [2] is 63 ± 4 μM Fe(II)/g.
In the case of `COc1cc(CNC(=O)CCCC/C=C/C(C)C)ccc1O` [Capsaicin, capsaicin], the “plasma insulin concentrations after glucose loading” value in the assay on healthy human subjects is “did not significantly differ from the control group”. The IC50 in assay [3] (setting [4]) stood at 10 ± 1 µM; in assay [3] (setting [5]), 11 ± 1 µM; in assay [1], 0.6 µM; against α-glucosidase, 13 ± 1 µM; in “ABTS assay”, 0.3 µM. The intestinal glucose absorption entry with type 1 diabetic rats is “inhibited intestinal glucose absorption”. Besides, the “FRAP Test” value in assay [2] was 30 ± 3 μM Fe(II)/g. The “release of insulin compared to the control” value with β-cells (15 min of incubation) and in the assay on β-cells (120 min of incubation) was “ineffective” in each case. Besides, at α-glucosidase, the Ki was 1 µM.
As for `CC/C=C\C/C=C\C/C=C\C/C=C\C/C=C\C/C=C\CCC(=O)O` [DHA, docosahexaenoic acid], the IC50 in assay [3] (setting [4]) is 70 ± 4 µM; in assay [3] (setting [5]) it was 287 ± 10 µM; against α-glucosidase, 268 ± 9 µM. Further, the “α-Amylase IC50” value at α-amylase is given as “No significant carbohydrate-hydrolysing enzymes inhibition”. Besides, the “FRAP Test” value in [2] is 9 ± 1 μM Fe(II)/g. Also, the “release of insulin compared to the control” value with β-cells (15 min of incubation) and in the assay with β-cells (120 min of incubation) was “ineffective” throughout. Besides, the Ki on α-glucosidase was 10 µM. The “α-Glucosidase IC50” value on α-glucosidase was “No significant carbohydrate-hydrolysing enzymes inhibition”.
For `CC/C=C\C/C=C\C/C=C\C/C=C\C/C=C\C/C=C\CCC(=O)NCc1ccc(O)c(OC)c1` [DHVA, N-docosahexaenoyl vanillylamine], the IC50 in [3] (setting [4]) was 46 ± 3 µM; in assay [3] (setting [5]) it was 56 ± 3 µM; in assay [1], 0.8 µM; against α-glucosidase, 23.9 µM and 24 µM; in the assay “ABTS assay” it was 0.3 µM. The “FRAP Test” value in [2] was 18 ± 2 μM Fe(II)/g. Besides, the “release of insulin compared to the control” value is “ineffective” with β-cells (15 min of incubation) and “slight decrease” with β-cells (120 min of incubation). Moreover, the Ki on α-glucosidase was 2 µM.
As for `CC/C=C\C/C=C\C/C=C\C/C=C\C/C=C\CCCC(=O)O` [EPA, eicosapentaenoic acid], the IC50 in [3] (setting [4]) was determined as 74 ± 5 µM; in assay [3] (setting [5]), 310 ± 10 µM; at α-glucosidase it was 250 ± 9 µM. Further, the “α-Amylase IC50” value at α-amylase is “No significant carbohydrate-hydrolysing enzymes inhibition”. In addition, the “FRAP Test” value in assay [2] is recorded as 4.8 ± 0.8 μM Fe(II)/g. Also, the “release of insulin compared to the control” value in the assay with β-cells (15 min of incubation) and with β-cells (120 min of incubation) was “ineffective” throughout. The Ki on α-glucosidase is 10 µM. The “α-Glucosidase IC50” value at α-glucosidase is given as “No significant carbohydrate-hydrolysing enzymes inhibition”.
For `CC/C=C\C/C=C\C/C=C\C/C=C\C/C=C\CCCC(=O)NCc1ccc(O)c(OC)c1` [EPVA, N-eicosapentaenoyl vanillylamine], the IC50 in [3] (setting [4]) was 9 ± 1 µM; in assay [3] (setting [5]) it was 11 ± 1 µM; in [1] it was 1 µM; on α-glucosidase it was 23.6 µM and 24 µM; in the assay “ABTS assay”, 0.2 µM. Also, the “FRAP Test” value in [2] is 28 ± 2 μM Fe(II)/g. For the same compound, the “release of insulin compared to the control” value in the assay on β-cells (15 min of incubation) and in the assay with β-cells (120 min of incubation) was “significant increase” each time. Moreover, the Ki at α-glucosidase is 2 µM.
As to `CCCOC(=O)c1cc(O)c(O)c(O)c1` [Propyl gallate], the IC50 in assay [3] (setting [4]) and in assay [3] (setting [5]) was 0.4 µM in each case.
Consider `COc1cc(COC(=O)CCCC/C=C/C(C)C)ccc1O` [capsiate], for which, in the assay on type 1 diabetic rats, the intestinal glucose absorption entry is “inhibited intestinal glucose absorption”.
